Patent US20110046107A1, “SULFONYL-SUBSTITUTED CARBAPENEM COMPOUNDS” (priority 2007, published 2011)
Values after ≈ are worked out from the molar mass of the structure shown. Where two headings read alike, the source gives them in different places.

Experiments:
[1] = Pharmacokinetic study of the compounds in SD rat (intravenous injection); format: in vivo, SD male rats
Method: Test drugs: the compound 1, 6, 8 and 9 prepared in the examples
Control drugs: Meropenem (Meropenem for injection), commercially available; Doripenem (Doripenem for Injection).
Internal standard substance: Warfarin, a white powder, purity 99%, batch number: 0072-8501, provided by Shanghai Institute for Drug Control.
Drug formulation: the test drugs were formulated before use by being dissolved in physiological saline to make a final concentration of 5 mg/mL for intravenous injection.
Test animal: SD male rats, weight: 200˜250 g, purchased from SHANGHAI SLAC LABORATORY ANIMAL CO. LTD.
Drug administration: The SD male rats were randomly divided into five groups with 3 in each group, and given the drugs by intravenous injection at a dose of 10 mg/kg. The animals were weighed before administration.
Collection of Samples: Zero time was marked before administration; 0.5 mL of blood was respectively sampled from orbit venous plexus at 5 min, 15 min, 30 min, 45 min, 1 h, 2 h, 4 h, 6 h, 8 h, 24 h after administration into heparinized centrifuge tubes. The samples were centrifuged for 6 minutes at 8000 rpm and the supernatant plasma was separated. The plasma was frozen at −20° C. for LC-MS/MS analysis.
Chromatographic conditions: column: Gemini C6-Phenyl (50 mm×4.6 mm, 5 μm); mobile phase: 0.1% of formic acid-water-acetonitrile (5:35:60, v/v/v); flow rate: 1 mL/min; column temperature: 35-40° C.; injection volume: 5 μL; split ratio: 1/5.
Mass spectrometer conditions: scanning mode: cation multiple reactions monitoring (MRM); ion source: electrospray ionization (ESI); Nebulize gas: 8 L/min; Curtain gas: 8 L/min; Collision gas: 4 L/min; Ionspray voltage: 4500 v; Temperature: 400° C./500° C.
Preparation of the Standard Curve and Quality-Control Sample: a Suitable Amount of the test drug was weighed precisely and then formulated into a stock solution (2.6 mg/mL) with ultrapure water. The stock solution was diluted with methanol to obtain a series of working solutions in a concentration of 25000, 5000, 2500, 500, 250 and 50 ng/mL, respectively. 100 μL of plasma samples were separately added into 20 μL of said working solutions to obtain the calibration solutions in a concentration of 5000, 1000, 500, 100, 50 and 10 ng/mL. By the same method, the quality-controlled sample solutions in a concentration of 4000, 800 and 20 ng/mL can be prepared. A standard curve was obtained by chromatographic analysis of the samples.
Sample preparation: 20 μL of acetonitrile and 200 μL (200 ng/mL) of Warfarin in acetonitrile were added into 100 μL of plasma sample, then spun for 1 minute and centrifuged for 5 minutes at 15000 rpm. 100 μL of the supernatant was taken, where 3 μL aliquot of the supernatant was used for the LC/MS/MS analysis.
Dosing concentration: The accuracy of the drug concentration in dosing solution for intravenous injection was 103.2%, determined by analysis of the formulated drugs using HPLC and comparison with the standards.
Data analysis: The drug concentration in plasma would be considered as zero if under the detection limit (10 ng/mL). The pharmacokinetics parameters were calculated by the non-compartment model using Winnonlin Professional 5.2 pharmacokinetics software.
Pharmacokinetics: The pharmacokinetics parameters and drug concentration-time curve were obtained by measuring the plasma drug concentration at different time points.

streptococcus pyogenes = assay: In vitro antibacterial activity, agar dilution method (clinical isolates); format: cell-based; details: clinically isolated strains, Gram-positive, read-out: MIC90 S. pyogenes
Text: (§1) Bacterial strains for test: All the bacterial strains are clinical isolates and purchased from public organizations. methicillin-sensitive staphylococcus aureus (MS SA), methicillin-resistant staphylococcus aureus (MRSA), methicillin-sensitive staphylococcus epidermidis (MSSE), methicillin-resistant staphylococcus epidermidis (MRSE), streptococcus pyogenes, penicillin-sensitive streptococcus pneumoniae (PSSP), penicillin-resistant streptococcus pneumoniae (PRSP), Escherichia coli, Citrobacter freundii, Enterobacter cloacae, Hemophilus influenza, Klebsiella pneumonia (producing ESBL), Morganella morganii, Proteus mirabilis, Serratia marcescens, and Pseudomonas aeruginosa.
(§2) Drugs to be tested: compounds of the invention prepared in the examples; the chemical names, structural formulae, preparation materials, and preparation methods are provided in the preparation examples of the compounds;
(§3) Meropenem (Meropenem for injection), Ertapenem (Ertapenem for injection), and Doripenem (Doripenem for injection) commercially available
(§4) Experimental method: the agar dilution method, by reference to Methodology of Pharmacological Experiment (XU Shuyun et al, published by the Peoples Medical Publishing House, 1st Edition, August, 1982; 3rd Edition, 5th printing, January 2002, p 1659-1660).

[2] = system: methicillin-sensitive staphylococcus epidermidis (MSSE); assay: as above; format: cell-based; details: read-out: MIC90 S. epidermidis MSSE
Text: as §1, §2, §3, §4

Proteus mirabilis = assay: as above; format: cell-based; details: clinically isolated strains, Gram-negative, agar dilution, read-out: MIC90 Proteus mirabilis
Text: as §1, §2, §3, §4

Citrobacter freundii = assay: as above; format: cell-based; details: clinically isolated strains, Gram-negative
Text: as §1, §2, §3, §4

Hemophilus influenza = assay: as above; format: cell-based; details: read-out: MIC90 Hemophilus influenza
Text: as §1, §2, §3, §4

[3] = system: penicillin-sensitive streptococcus pneumoniae (PSSP); assay: as above; format: cell-based; details: clinically isolated strains, Gram-positive, read-out: MIC90 S. pneumoniae PSSP
Text: as §1, §2, §3, §4

Pseudomonas aeruginosa = assay: as above; format: cell-based; details: clinically isolated strains, Gram-negative
Text: as §1, §2, §3, §4

Escherichia coli = assay: as above; format: cell-based; details: clinically isolated strains, Gram-negative, read-out: MIC90 E. coli
Text: as §1, §2, §3, §4

[4] = system: penicillin-resistant streptococcus pneumoniae (PRSP); assay: as above; format: cell-based; details: clinically isolated strains, Gram-positive, read-out: MIC90 S. pneumoniae PRSP
Text: as §1, §2, §3, §4

[5] = system: methicillin-sensitive staphylococcus aureus (MSSA); assay: as above; format: cell-based; details: read-out: MIC90 S. aureus MSSA
Text: as §1, §2, §3, §4

Serratia marcescens = assay: as above; format: cell-based; details: read-out: MIC90 Serratia marcescens
Text: as §1, §2, §3, §4

Enterobacter cloacae = assay: as above; format: cell-based; details: read-out: MIC90 Enterobacter cloacae
Text: as §1, §2, §3, §4

Morganella morganii = assay: as above; format: cell-based; details: clinically isolated strains, Gram-negative
Text: as §1, §2, §3, §4

[6] = system: methicillin-resistant staphylococcus aureus (MRSA); assay: as above; format: cell-based; details: clinically isolated strains, Gram-positive, read-out: MIC90 S. aureus MRSA
Text: as §1, §2, §3, §4

[7] = system: Klebsiella pneumonia (producing ESBL); assay: as above; format: cell-based; details: Klebsiella pneumoniae; clinically isolated strains (producing ESBL), Gram-negative, agar dilution; read-out: MIC90 Klebsiella pneumonia
Text: as §1, §2, §3, §4

[8] = system: methicillin-resistant staphylococcus epidermidis (MRSE); assay: as above; format: cell-based; details: clinically isolated strains, Gram-positive, read-out: MIC90 S. epidermidis MRSE
Text: as §1, §2, §3, §4

[9] = cited from earlier work
[10] = in vivo, SD male rats, intravenous injection 10 mg/kg, plasma, X ± SD, n = 3, read-out: t1/2 (half lives) (converted)
[11] = clinically isolated strains, Gram-positive, agar dilution
[12] = clinically isolated strains, Gram-negative, agar dilution

Compound | half-life [1, 10] [min] | MIC90 (streptococcus pyogenes) [µg/mL] | MIC90 [2, 11] [µg/mL] | MIC90 (Proteus mirabilis) [µg/mL] | MIC90 (Citrobacter freundii) [µg/mL] | MIC90 (Hemophilus influenza) [µg/mL] | MIC90 [3] [µg/mL] | MIC90 (Pseudomonas aeruginosa) [µg/mL] | MIC90 (Escherichia coli) [µg/mL] | MIC90 [4] [µg/mL] | MIC90 [5, 11] [µg/mL] | MIC90 (Serratia marcescens; [12]) [µg/mL] | MIC90 (Enterobacter cloacae; [12]) [µg/mL] | MIC90 (Morganella morganii) [µg/mL] | MIC90 [6] [µg/mL] | MIC90 [7] [µg/mL] | MIC90 [8] [µg/mL] | MIC90 (Hemophilus influenza; [12]) [µg/mL] | half-lives in human body [9] | also measured
C[C@@H](O)[C@H]1C(=O)N2C(C(=O)O)=C(SC3CN(S(N)(=O)=O)C3)[C@H](C)[C@H]12 [Compound 1, (4R,5S,6S)-3-[N-aminosulfonyl-azetidin-3-yl]thio-6-[(1R)-1-hydroxyethyl]-4-methyl-7-oxo-1-aza-bicyclo-[3.2.0]hept-2-ene-2-carboxylic acid] | 19.2 ± 1.2 | 0.004 (≈ 0.0106 µM) | 0.063 (≈ 0.167 µM) | 0.63 (≈ 1.67 µM) | 0.016 (≈ 0.0424 µM) | 0.063 (≈ 0.167 µM) | 0.008 (≈ 0.0212 µM) | 4 (≈ 10.6 µM) | 0.008 (≈ 0.0212 µM) | 0.5 (≈ 1.32 µM) | 0.032 (≈ 0.0848 µM) | 0.063 (≈ 0.167 µM) | 0.063 (≈ 0.167 µM) | 0.032 (≈ 0.0848 µM) | 4 (≈ 10.6 µM) | 0.032 (≈ 0.0848 µM) | 4 (≈ 10.6 µM) |  |  | 
C[C@@H](O)[C@H]1C(=O)N2C(C(=O)O)=C(SC3CN(S(=O)(=O)N(C)C)C3)[C@H](C)[C@H]12 [Compound 6, (4R,5S,6S)-3-[1-(N,N-dimethylaminosulfonyl)-azetidin-3-yl]-thio-6-[(1R)-1-hydroxyethyl]-4-methyl-7-oxo-1-aza-bicyclo-[3.2.0]hept-2-ene-2-carboxylic acid] | 18 ± 1.8 | 0.008 (≈ 0.0197 µM) | 0.063 (≈ 0.155 µM) | 0.063 (≈ 0.155 µM) | 0.063 (≈ 0.155 µM) |  | 0.004 (≈ 0.00986 µM) | 16 (≈ 39.5 µM) | 0.016 (≈ 0.0395 µM) | 1 (≈ 2.47 µM) | 0.063 (≈ 0.155 µM) | 0.063 (≈ 0.155 µM) | 0.25 (≈ 0.617 µM) | 0.063 (≈ 0.155 µM) | 8 (≈ 19.7 µM) | 0.125 (≈ 0.308 µM) | 16 (≈ 39.5 µM) | 0.25 (≈ 0.617 µM) |  | 
CCCCN(CCCC)S(=O)(=O)N1CC(SC2=C(C(=O)O)N3C(=O)[C@H]([C@@H](C)O)[C@H]3[C@H]2C)C1 [Compound 8, (4R,5S,6S)-3-[1-(N,N-dibutylaminosulfonyl)-azetidin-3-yl]thio-6-[(1R)-1-hydroxyethyl]-4-methyl-7-oxo-1-aza-bicyclo-[3.2.0]hept-2-ene-2-carboxylic acid] | 16.2 ± 1.8 | 0.004 (≈ 0.00817 µM) |  | 0.063 (≈ 0.129 µM) | 0.016 (≈ 0.0327 µM) |  | 0.004 (≈ 0.00817 µM) | 8 (≈ 16.3 µM) | 0.016 (≈ 0.0327 µM) | 1 (≈ 2.04 µM) |  |  |  | 0.032 (≈ 0.0654 µM) | 8 (≈ 16.3 µM) | 0.032 (≈ 0.0654 µM) | 8 (≈ 16.3 µM) | 0.125 (≈ 0.255 µM) |  | MIC90 [2]: 0.125 µg/mL (≈ 0.255 µM); MIC90 [5]: 0.125 µg/mL (≈ 0.255 µM); MIC90 (Serratia marcescens): 0.125 µg/mL (≈ 0.255 µM); MIC90 (Enterobacter cloacae): 0.125 µg/mL (≈ 0.255 µM)
C[C@@H](O)[C@H]1C(=O)N2C(C(=O)O)=C(SC3CN(S(=O)(=O)NCC(O)CN)C3)[C@H](C)[C@H]12 (stereo partly drawn) [Compound 9, (4R,5S,6S)-3-[1-(2-hydroxy-3-aminopropylaminosulfonyl)-azetidin-3-yl]thio-6-[(1R)-1-hydroxyethyl]-4-methyl-7-oxo-1-aza-bicyclo-[3.2.0]-hept-2-ene-2-carboxylic acid] | 19.2 ± 3.6 |  |  |  |  |  |  |  |  |  |  |  |  |  |  |  |  |  |  | 
C[C@@H](O)[C@H]1C(=O)N2C(C(=O)O)=C(S[C@@H]3CN[C@H](CNS(N)(=O)=O)C3)[C@H](C)[C@H]12 [doripenem, Doripenem, reference compound] |  | 0.008 (≈ 0.019 µM) | 0.125 (≈ 0.297 µM) | 0.5 (≈ 1.19 µM) | 0.063 (≈ 0.15 µM) | 0.5 (≈ 1.19 µM) | 0.016 (≈ 0.038 µM) | 8 (≈ 19 µM) | 0.063 (≈ 0.15 µM) | 1 (≈ 2.38 µM) | 0.125 (≈ 0.297 µM) | 0.25 (≈ 0.595 µM) | 0.025 (≈ 0.0595 µM) | 0.063 (≈ 0.15 µM) | 16 (≈ 38 µM) | 0.125 (≈ 0.297 µM) | 16 (≈ 38 µM) |  | about 1 h | half-life ([1]; male, SD, in vivo, iv, 10 mg/kg): 6.6 ± 0.6 min
C[C@@H](O)[C@H]1C(=O)N2C(C(=O)O)=C(S[C@@H]3CN[C@H](C(=O)N(C)C)C3)[C@H](C)[C@H]12 [meropenem, Meropenem, reference compound] |  | 0.008 (≈ 0.0209 µM) | 0.25 (≈ 0.652 µM) | 0.125 (≈ 0.326 µM) | 0.063 (≈ 0.164 µM) |  | 0.016 (≈ 0.0417 µM) | 16 (≈ 41.7 µM) | 0.032 (≈ 0.0834 µM) | 1 (≈ 2.61 µM) | 0.25 (≈ 0.652 µM) | 0.125 (≈ 0.326 µM) | 1 (≈ 2.61 µM) | 0.063 (≈ 0.164 µM) | 64 (≈ 167 µM) | 0.5 (≈ 1.3 µM) | 32 (≈ 83.4 µM) | 0.25 (≈ 0.652 µM) | about 1 h | half-life ([1]; SD male rats, intravenous injection 10 mg/kg, plasma, X ± SD, n = 3, read-out: t1/2 (half lives) (converted)): 7.2 ± 0.6 min
